Converted amounts (≈) assume the structure as drawn.
Tests used:
Staphylococcus aureus [1] = experiment: Antibacterial activity against Staphylococcus aureus ATCC 29213 by broth microdilution method; format: functional
HepG2 = experiment: Cytotoxicity against human HepG2 cells assessed as reduction in cell viability by XTT assay; format: cell-based
[2] = Hemolytic activity in human RBC relative to control; format: ADME, cell-based, Erythrocyte; conditions: red blood cells (erythrocytes), read-out: Activity
[3] = Plasma protein binding in human at […] incubated for 2 hrs by UPLC analysis; format: ADME, cell-free; conditions: read-out: PPB (converted)
Enterococcus faecalis [4] = experiment: Antibacterial activity against vancomycin-susceptible Enterococcus faecalis 201 clinical isolate by broth microdilution method; format: functional
Staphylococcus aureus [5] = experiment: Antibacterial activity against vancomycin-resistant Staphylococcus aureus VRS1 clinical isolate by broth microdilution method; format: functional
Staphylococcus aureus [6] = experiment: Antibacterial activity against vancomycin-resistant Staphylococcus aureus VRS2 clinical isolate by broth microdilution method; format: functional
[7] = tested on: Staphylococcus haemolyticus; experiment: Antibacterial activity against Staphylococcus haemolyticus ATCC 29970 by broth microdilution method; format: functional
Enterococcus faecalis [8] = experiment: Antibacterial activity against Enterococcus faecalis ATCC 29212 by broth microdilution method; format: functional

Row | Structure (SMILES) | MIC (Staphylococcus aureus [1]) [µg/mL] | also measured
1 | Oc1ccc(-c2nc(-c3ccc(Oc4ccccc4CBr)cc3)no2)cc1 | 8 (≈ 18.9 µM) | –
2 | [N-]=[N+]=Nc1ccccc1Oc1ccc(-c2noc(-c3ccc(O)cc3)n2)cc1 | 2 (≈ 5.39 µM) | –
3 | O=[N+]([O-])c1ccccc1Oc1ccc(-c2noc(-c3ccc(O)cc3)n2)cc1 | 4 (≈ 10.7 µM) | –
4 | Cl.Oc1ccc(-c2nc(-c3ccc(OC4CCNC4)cc3)no2)cc1 (stereo not drawn) | 16 | –
5 | Oc1ccc(-c2nc(-c3ccc(Oc4cccc(I)c4)cc3)no2)cc1 | 4 (≈ 8.77 µM) | –
6 | Oc1ccc(-c2nc(-c3ccc(Oc4cccc(Br)c4)cc3)no2)cc1 | 4 (≈ 9.77 µM) | –
7 | Oc1ccc(-c2nc(-c3ccc(Oc4ccc(CBr)cc4)cc3)no2)cc1 | ≥ 128 | –
8 | Clc1c[nH]nc1-c1nc(-c2ccc(Oc3ccc(I)cc3)cc2)no1 | 1 (≈ 2.15 µM) | IC50 (HepG2): 30.7 µg/mL (≈ 66.1 µM); hemolysis [2]: 3.1%; fraction unbound at 2 h [3]: 0.095
9 | O=C(O)c1cccc(Oc2ccc(-c3noc(-c4ccc(O)cc4)n3)cc2)c1 | 64 (≈ 171 µM) | –
10 | Oc1ccc(-c2nc(-c3ccc4oc5ccccc5c4c3)no2)cc1 | ≥ 128 | –
11 | [N-]=[N+]=Nc1ccc(Oc2ccc(-c3noc(-c4ccc(O)cc4)n3)cc2)cc1 | 2 (≈ 5.39 µM) | –
12 | Oc1ccc(-c2nc(-c3ccc(Oc4ccc(Br)cc4)cc3)no2)cc1 | 2 (≈ 4.89 µM) | –
13 | CC(=O)N1CCC(Oc2ccc(-c3noc(-c4ccc(O)cc4)n3)cc2)CC1 | ≥ 128 | –
14 | Clc1c[nH]nc1-c1nc(-c2ccc(OC3CCNCC3)cc2)no1 | ≥ 128 | –
15 | FC(F)(F)Oc1ccc2oc3ccc(-c4noc(-c5n[nH]cc5Cl)n4)cc3c2c1 | > 128 | –
16 | O=C(O)c1ccc(Oc2ccc(-c3noc(-c4ccc(O)cc4)n3)cc2)cc1 | 64 (≈ 171 µM) | –
17 | CC(C)(C)OC(=O)N1CCC(Oc2ccc(-c3noc(-c4n[nH]cc4Cl)n3)cc2)C1 (stereo not drawn) | ≥ 128 | –
18 | CC(C)(C)OC(=O)NCCCOc1ccc(-c2noc(-c3ccc(O)cc3)n2)cc1 | ≥ 128 | –
19 | Oc1ccc(-c2nc(-c3ccc(OC4CCCNC4)cc3)no2)cc1 (stereo not drawn) | 64 (≈ 190 µM) | –
20 | CN(C)C(=O)CCOc1ccc(-c2noc(-c3ccc(O)cc3)n2)cc1 | ≥ 128 | –
21 | Oc1ccc(-c2nc(-c3ccc(Oc4ccc(OC(F)(F)F)cc4)cc3)no2)cc1 | 2 (≈ 4.83 µM) | IC50 (HepG2): 16.9 µg/mL (≈ 40.8 µM); hemolysis [2]: 2.1%; fraction unbound at 2 h [3]: 0.002
22 | Oc1ccc(-c2nc(-c3ccc(OC(F)(F)F)cc3)no2)cc1 | 1 (≈ 3.1 µM) | IC50 (HepG2): 84.9 µg/mL (≈ 263 µM); hemolysis [2]: 16%
23 | Clc1c[nH]nc1-c1nc(-c2ccc(OC3CCCC3)cc2)no1 | ≥ 128 | –
24 | Oc1ccc(-c2nc(-c3ccc(OC4CCOC4)cc3)no2)cc1 (stereo not drawn) | ≥ 128 | –

Row | Structure (SMILES) | MIC (Staphylococcus aureus [1]) [µg/mL] | also measured
25 | Oc1ccc(-c2nc(-c3ccc(Oc4ccc(I)cc4)cc3)no2)cc1 | 4 (≈ 8.77 µM) | –
26 | CC(=O)c1ccc(Oc2ccc(-c3noc(-c4n[nH]cc4Cl)n3)cc2)cc1 | ≥ 128 | –
27 | OCc1ccccc1Oc1ccc(-c2noc(-c3ccc(O)cc3)n2)cc1 | ≥ 128 | –
28 | N#Cc1ccc(Oc2ccc(-c3noc(-c4n[nH]cc4Cl)n3)cc2)cc1 | 128 (≈ 352 µM) | –
29 | COc1ccc(-c2noc(-c3n[nH]cc3Cl)n2)cc1 | ≥ 128 | –
30 | Cl.NC1CCC(Oc2ccc(-c3noc(-c4ccc(O)cc4)n3)cc2)CC1 (stereo not drawn) | ≥ 128 | –
31 | Cl.Clc1c[nH]nc1-c1nc(-c2ccc(OC3CCCNC3)cc2)no1 (stereo not drawn) | ≥ 128 | –
32 | Oc1ccc(-c2noc(-c3ccc(O)cc3)n2)cc1 | ≥ 128 | –
33 | O=C(c1cccc(Oc2ccc(-c3noc(-c4ccc(O)cc4)n3)cc2)c1)C(F)(F)F | 4 (≈ 9.38 µM) | –
34 | CS(=O)(=O)Oc1ccc(-c2noc(-c3ccc(O)cc3)n2)cc1 | ≥ 128 | –
35 | O=C(O)c1ccccc1Oc1ccc(-c2noc(-c3ccc(O)cc3)n2)cc1 | > 128 | –
36 | Clc1ccc(Oc2ccc(-c3noc(-c4n[nH]cc4Cl)n3)cc2)cc1Cl | 1 (≈ 2.45 µM) | IC50 (HepG2): 17.2 µg/mL (≈ 42.2 µM); hemolysis [2]: 1.8%; fraction unbound at 2 h [3]: 0.022
37 | COc1ccc2oc3ccc(-c4noc(-c5ccc(O)cc5)n4)cc3c2c1 | ≥ 128 | –
38 | Oc1ccc(-c2nc(-c3ccc(Oc4ccccn4)cc3)no2)cc1 | ≥ 128 | –
39 | CN(C)C(=O)Oc1ccc(-c2noc(-c3ccc(O)cc3)n2)cc1 | ≥ 128 | –
40 | NC(=O)c1ccccc1Oc1ccc(-c2noc(-c3ccc(O)cc3)n2)cc1 | ≥ 128 | –
41 | Oc1ccc(-c2nc(-c3ccc(OC4CCNCC4)cc3)no2)cc1 | 16 (≈ 47.4 µM) | –
42 | CC(C)(C)OC(=O)N1CCC(Oc2ccc(-c3noc(-c4n[nH]cc4Cl)n3)cc2)CC1 | ≥ 128 | –
43 | Oc1ccc(-c2nc(-c3ccc(Oc4cccc(CBr)c4)cc3)no2)cc1 | 4 (≈ 9.45 µM) | –
44 | N#Cc1ccc(Oc2ccc(-c3noc(-c4ccc(O)cc4)n3)cc2)cc1 | ≥ 128 | –
45 | Clc1c[nH]nc1-c1nc(-c2ccc(OC3CN4CCC3CC4)cc2)no1 (stereo not drawn) | 128 (≈ 344 µM) | –
46 | COc1ccc(-c2noc(-c3ccc(O)cc3)n2)cc1 | 32 (≈ 119 µM) | –
47 | COc1ccc(Oc2ccc(-c3noc(-c4ccc(O)cc4)n3)cc2)cc1 | 2 (≈ 5.55 µM) | –
48 | CC(=O)NCCOc1ccc(-c2noc(-c3ccc(O)cc3)n2)cc1 | > 128 | –

Row | Structure (SMILES) | MIC (Staphylococcus aureus [1]) [µg/mL] | also measured
49 | FC(F)(F)Oc1ccc(-c2noc(-c3ccc4[nH]ccc4c3)n2)cc1 | ≥ 128 | –
50 | Oc1ccc(-c2nc(-c3ccc(OC4CNC4)cc3)no2)cc1 | 64 (≈ 207 µM) | –
51 | Cc1nc2cc(Oc3ccc(-c4noc(-c5n[nH]cc5Cl)n4)cc3)ccc2s1 | 16 (≈ 39 µM) | –
52 | CC(C)(C)Oc1ccc(-c2noc(-c3ccc(O)cc3)n2)cc1 | ≥ 128 | –
53 | Nc1ccccc1Oc1ccc(-c2noc(-c3ccc(O)cc3)n2)cc1 | ≥ 128 | –
54 | Fc1ccc(Oc2ccc(-c3noc(-c4n[nH]cc4Cl)n3)cc2)cc1Cl | 2 (≈ 5.11 µM) | IC50 (HepG2): 21 µg/mL (≈ 53.7 µM); hemolysis [2]: 2.9%; fraction unbound at 2 h [3]: 0.088
55 | CN1CCCC(Oc2ccc(-c3noc(-c4ccc(O)cc4)n3)cc2)C1 (stereo not drawn) | 64 (≈ 182 µM) | –
56 | Oc1ccc(Oc2ccc(-c3noc(-c4ccc(O)cc4)n3)cc2)cc1 | 16 (≈ 46.2 µM) | –
57 | CN1[C@@H]2CC[C@@H]1CC(Oc1ccc(-c3noc(-c4n[nH]cc4Cl)n3)cc1)C2 (stereo partly drawn) | 64 (≈ 166 µM) | –
58 | Oc1ccc(-c2nc(-c3ccc4oc5ccc(C(F)(F)F)cc5c4c3)no2)cc1 | ≥ 128 | –
59 | Oc1ccc(-c2nc(-c3ccc4oc5ccc(F)cc5c4c3)no2)cc1 | ≥ 128 | –
60 | CN[C@H](CC(C)C)C(=O)N[C@H]1C(=O)N[C@@H](CC(N)=O)C(=O)N[C@H]2C(=O)N[C@H]3C(=O)N[C@H](C(=O)N[C@H](C(=O)O)c4cc(O)cc(O)c4-c4cc3ccc4O)[C@H](O)c3ccc(c(Cl)c3)Oc3cc2cc(c3O[C@@H]2O[C@H](CO)[C@@H](O)[C@H](O)[C@H]2O[C@H]2C[C@](C)(N)[C@H](O)[C@H](C)O2)Oc2ccc(cc2Cl)[C@H]1O [VANCOMYCIN] | – | MIC (Enterococcus faecalis [4]): 1 µg/mL (≈ 0.69 µM); MIC (Staphylococcus aureus [5]): 64 µg/mL (≈ 44.2 µM); MIC (Staphylococcus aureus [6]): 32 µg/mL (≈ 22.1 µM); MIC [7]: 4 µg/mL (≈ 2.76 µM); MIC (Enterococcus faecalis [8]): 2 µg/mL (≈ 1.38 µM)
61 | Oc1ccc(-c2nc(-c3ccc4c(c3)Oc3ccccc3O4)no2)cc1 | ≥ 128 | –
62 | CC(C)(C)OC(=O)NC1CCC(Oc2ccc(-c3noc(-c4ccc(O)cc4)n3)cc2)CC1 (stereo not drawn) | ≥ 128 | –
63 | CN1CCCC(Oc2ccc(-c3noc(-c4n[nH]cc4Cl)n3)cc2)C1 (stereo not drawn) | 128 (≈ 356 µM) | –
64 | [N-]=[N+]=Nc1cccc(Oc2ccc(-c3noc(-c4ccc(O)cc4)n3)cc2)c1 | 2 (≈ 5.39 µM) | –
65 | Oc1ccc(-c2nc(-c3ccc(Oc4ccccc4I)cc3)no2)cc1 | 2 (≈ 4.38 µM) | –
66 | Fc1ccc(Oc2ccc(-c3noc(-c4n[nH]cc4Cl)n3)cc2)cc1F | 0.5 (≈ 1.33 µM) | IC50 (HepG2): 17.7 µg/mL (≈ 47.2 µM); hemolysis [2]: 1.3%; fraction unbound at 2 h [3]: 0.011
67 | Cl.NCCCOc1ccc(-c2noc(-c3ccc(O)cc3)n2)cc1 | 16 | –
68 | CN1[C@@H]2CC[C@@H]1CC(Oc1ccc(-c3noc(-c4ccc(O)cc4)n3)cc1)C2 (stereo partly drawn) | 32 (≈ 84.8 µM) | –
69 | Oc1ccc(-c2nc(-c3ccc(OC4CN5CCC4CC5)cc3)no2)cc1 (stereo not drawn) | 64 (≈ 176 µM) | –
70 | CC(C)S(=O)(=O)Oc1ccc(-c2noc(-c3ccc(O)cc3)n2)cc1 | ≥ 128 | –
71 | FC(F)(F)Oc1ccc(-c2noc(-c3n[nH]cc3Cl)n2)cc1 | ≥ 128 | –
72 | CS(=O)(=O)c1ccc(Oc2ccc(-c3noc(-c4n[nH]cc4Cl)n3)cc2)cc1 | 128 (≈ 307 µM) | –
